For series [1], the system named is Plasmodium falciparum. Nature of the series: Antimalarial activity against Plasmodium falciparum infected in A-positive human erythrocytes assessed as [3H]-hypoxanthine uptake after 24 hrs by liquid scintillation counter. Format: functional, organism-based.
Series [2] can be described thus: Half life in Beagle dog at 0.05 mg/kg, iv. Format: ADME, organism-based, Canis lupus familiaris. More on the design: dose 0.05 mg/kg, route intravenous. As to conditions: in vivo.
Series [3] is described as follows: Chromatographic hydrophobicity index of the compound at pH 2 by rapid gradient HPLC analysis. In kind it is physicochemical.
The nature of series [4]: Solubility of the compound in simulated gastric fluid at pH 1.2. Format: physicochemical. The note with it: simulated gi fluid.
Series [5] in a line: Clearance in Beagle dog at 0.05 mg/kg, iv. In kind it is ADME, organism-based, Canis lupus familiaris. Also noted: dose 0.05 mg/kg, route intravenous. The note with it: in vivo.
Series [6] is described as follows: Dissociation constant, pKa of the compound. In kind it is physicochemical.
The nature of series [7]: Volume of distribution in Beagle dog at 0.05 mg/kg, iv. In kind it is ADME, organism-based, Canis lupus familiaris. More on the design: dose 0.05 mg/kg, route intravenous. As to conditions: in vivo.
A short description of series [8]: Chromatographic hydrophobicity index of the compound at pH 10.5 by rapid gradient HPLC analysis. In kind it is physicochemical.
Series [9] in a line: Volume of distribution in CD1 mouse at 0.2 mg/kg, iv. More on the design: dose 0.2 mg/kg, route intravenous. In kind it is ADME, organism-based. As to conditions: in vivo.
Series [10] concerns Mus musculus. Nature of the series: Cmax in CD1 mouse at 10 mg/kg, po. The note with it: in vivo. Also noted: dose 10 mg/kg, route oral. In kind it is ADME, organism-based.
The nature of series [11]: Chromatographic hydrophobicity index of the compound at pH 7.4 by rapid gradient HPLC analysis. In kind it is physicochemical.
A short description of series [12]: Oral bioavailability in CD1 mouse at 10 mg/kg. In kind it is ADME, organism-based. As to conditions: in vivo.
Series [13] is described as follows: Clearance in CD1 mouse at 0.2 mg/kg, iv. Format: ADME, organism-based. Also noted: dose 0.2 mg/kg, route intravenous. The note with it: in vivo.
Series [14] is described as follows: Solubility of the compound in PBS at pH 7.4. Format: physicochemical.
Series [15] is described as follows: Oral bioavailability in Beagle dog at 2 mg/kg. Format: ADME, organism-based, Canis lupus familiaris. The note with it: in vivo.
Series [16] deals with Canis familiaris. Nature of the series: Cmax in Beagle dog at 2 mg/kg, po. The note with it: in vivo. More on the design: dose 2 mg/kg, route oral. Format: ADME, organism-based, Canis lupus familiaris.
A short description of series [17]: Solubility of the compound in fasted state simulated intestinal fluid at pH 6.8. In kind it is physicochemical.
The nature of series [18]: Half life in CD1 mouse at 0.2 mg/kg, iv. More on the design: dose 0.2 mg/kg, route intravenous. As to conditions: in vivo. In kind it is ADME, organism-based.
The nature of series [19]: Solubility of the compound in fed state simulated intestinal fluid at pH 5.0. Format: physicochemical.
Series [20] in a line: Partition coefficient, log P of the compound. In kind it is physicochemical. The note with it: octanol/water.
Series [21] has as its system Plasmodium falciparum. Nature of the series: Antimalarial activity against Plasmodium falciparum in po dosed HM-IL2R gamma null mouse assessed as reduction in parasitemia administered once a day for 4 days. Format: functional. The note with it: 96 h.

≈ marks a conversion by molar mass, not a printed value. Bounds are passed on as bounds.

Usually IC50 stands for the concentration at which inhibition is half-maximal. As for `Cc1[nH]c(C)c(-c2ccc(Oc3cccc(C(F)(F)F)c3)cc2)c(=O)c1Cl`, the IC50 in series [1] is 3 nM.

In the case of `Cc1[nH]c(CN2CCCC2)c(-c2ccc(Oc3ccc(OC(F)(F)F)cc3)cc2)c(=O)c1Cl`, the half-maximal inhibitory concentration (IC50) in [1] was greater than 250 nM.

As to `Cc1[nH]c(CN2CCOCC2)c(-c2ccc(Oc3ccc(OC(F)(F)F)cc3)cc2)c(=O)c1Cl`, the IC50 in [1] is greater than 250 nM.

The half-life is the time in which the quantity being followed falls by half. The solubility is the dissolved amount per volume that the medium holds. A higher solubility goes with much dissolved substance. Usually clearance stands for the rate of elimination divided by the concentration. A lower clearance goes with a low capacity for elimination. For orientation: pKa means the negative logarithm of the acid dissociation constant. In general, Vd refers to the apparent volume that relates the amount in the body to the concentration in plasma or blood. Low readings indicate little distribution into tissue, high ones wide distribution into tissue. As usually defined, the Cmax is the maximum level reached in the sampled fluid or tissue. What is called bioavailability is the share of a dose that reaches the circulation, judged against a reference dose that is usually intravenous. Broadly, the logP is the decadic logarithm of the partition coefficient of the neutral form, usually between octanol and water. A lower logP goes with a more hydrophilic compound. `Cc1[nH]c(C)c(-c2ccc(Oc3ccc(OC(F)(F)F)cc3)cc2)c(=O)c1Cl`: the half-life in [2] is 143 h; in series [18], 24.1 h. For the same compound, the results for the CHI in series [3], in series [8] and in [11] were 2.75, 2.77 and 2.79, respectively. The solubility was 287 µg/mL (≈ 700 µM) in [4], less than 100 µg/mL in series [14], 500 µg/mL (≈ 1220 µM) in series [17] and 700 µg/mL (≈ 1710 µM) in series [19]. The values for the clearance in series [5] and in series [13] were 0.2 mL/min/kg and 0.6 mL/min/kg, respectively. The same compound returned a pKa in series [6] of 10.1. Moreover, the Vd in [7] turned out to be 2.9 L/kg; in series [9] it was 1.2 L/kg. Further, the Cmax came out at 900 ng/mL in series [10] and 30 ng/mL in series [16]. Also, the IC50 in [1] was found to be 7 nM. Moreover, the bioavailability in [12] was 20%; in series [15], 4.4%. In [20], this compound yielded a logP of 4.8.

As to `Cc1[nH]c(CN(C)C)c(-c2ccc(Oc3ccc(OC(F)(F)F)cc3)cc2)c(=O)c1Cl`, the IC50 in series [1] was greater than 250 nM.

Consider `Cc1[nH]c(CN2CCCC2)c(Cl)c(=O)c1-c1ccc(Oc2ccc(OC(F)(F)F)cc2)cc1`, for which the IC50 in [1] is greater than 250 nM.

The term ED50 denotes the dose that gives a 50% effect, or the effect in half of the subjects. Take `Cc1[nH]c(CO)c(-c2ccc(Oc3ccc(OC(F)(F)F)cc3)cc2)c(=O)c1Cl`: the half-life in series [2] was 42 h; in [18] it was 3.8 h. Also, the CHI in series [3] was 2.43; in series [8], 2.2; in series [11], 2.42. The solubility was 372 µg/mL (≈ 874 µM) in series [4], less than 100 µg/mL in [14], 690 µg/mL (≈ 1620 µM) in series [17] and 2340 µg/mL (≈ 5500 µM) in series [19]. Besides, the clearance was 0.8 mL/min/kg in series [5] and 3 mL/min/kg in [13]. The compound also gave a pKa in [6] of 9.73. For the same compound, the Vd in series [7] was determined as 2.8 L/kg; in series [9] it was 1 L/kg. Besides, the Cmax in series [10] was 1100 ng/mL; in series [16], 300 ng/mL. The IC50 in [1] came to 2 nM. In addition, the bioavailability in series [12] was determined as 50%; in series [15], 16%. In addition, the ED50 in [21] amounted to 0.6 mg/kg. In series [20], this compound came in with a logP of 4.4.

As to `Cc1[nH]c(CN(C)C)c(Cl)c(=O)c1-c1ccc(Oc2ccc(OC(F)(F)F)cc2)cc1`, the IC50 in [1] is greater than 250 nM.

As for `Cc1[nH]c(CO)c(-c2ccc(Oc3cccc(C(F)(F)F)c3)cc2)c(=O)c1Cl`, the IC50 in series [1] stood at 3 nM.

For `Cc1[nH]c(CO)c(Cl)c(=O)c1-c1ccc(Oc2ccc(OC(F)(F)F)cc2)cc1`, in [1], the IC50 is 130 nM.

Regarding `Cc1[nH]c(C(=O)N(C)C)c(-c2ccc(Oc3ccc(OC(F)(F)F)cc3)cc2)c(=O)c1Cl`, the IC50 in series [1] was greater than 250 nM.

As for `Cc1[nH]c(CO)c(Cl)c(=O)c1-c1ccc(Oc2cccc(C(F)(F)F)c2)cc1`, the IC50 in [1] stood at 120 nM.

Take `Cc1[nH]c(CN2CCOCC2)c(Cl)c(=O)c1-c1ccc(Oc2ccc(OC(F)(F)F)cc2)cc1`: in series [1], the IC50 is greater than 250 nM.

Turning to `Cc1[nH]c(C(=O)O)c(-c2ccc(Oc3ccc(OC(F)(F)F)cc3)cc2)c(=O)c1Cl`, the IC50 in [1] was greater than 250 nM.

Source of the values: ChEMBL document CHEMBL1821610 (Bioorg Med Chem Lett, 2011).
